Experimental data taken from US20230103965A1, “NOVEL ACTIVATORS OF THE LIPIDATING TRANSPORTER ATP BINDING CASSETTE PROTEIN TYPE 1 (AB-CA1) AND THERAPEUTIC USES THEREOF” (RAMOT AT TEL-AVIV UNIVERSITY LTD., priority 2020, published 2023).

Target: T1, ECD2 of ABCA1 (Homo sapiens, UniProt O95477)
T1 construct: The proteins used in these experiments were Extra-Cellular Domain 1 (ECD1) of ABCA1 and Extra-Cellular Domain 2 (ECD2); purchased Biomatick
Assay: Microscale thermophoresis (MST) binding to ECD2
Method: Microscale thermophoresis (MST) measurements. MST measurements of the binding of the HTS hits to the extracellular domain (ECD) of ABCA1 were performed by two complimentary methods utilizing either fluorescently labeled proteins or the endogenous fluorescence of unlabeled proteins. This was pursued as follows:
(i) MST utilizing labeled proteins: The proteins used in these experiments were Extra-Cellular Domain 1 (ECD1) of ABCA1 and Extra-Cellular Domain 2 (ECD2) which were provided by the manufacturer (Biomatick) at a concentration of 7.1 μM. The buffers of protein samples were exchanged on a desalting PD-10 column to MST labelling buffer (Nanotemper Technologies, NT.115). […] The concentrations of the labeled protein samples solutions were determined by Spectrophotometer (Carey 60) at 280 nm and 650 nm and adjusted to a final concentration 7.1 μM, aliquoted in 30 μl and stored at −80° C. for further use. Protein-compound interactions were analyzed by microscale thermophoresis. […] All dissociation constants (KD) were calculated to a binding model assuming a 1:1 stoichiometry per binding partner. […]
These experiments employed the MST ligand binding to protein assay (FIG. 13 and EXAMPLE 1). […] Two complementary MST tests were performed, in which either the proteins were labeled with a fluorescence moiety or the endogenous fluorescence of the unlabeled proteins was monitored).

T1 sequence (O95477 1372-1656 limits assumed): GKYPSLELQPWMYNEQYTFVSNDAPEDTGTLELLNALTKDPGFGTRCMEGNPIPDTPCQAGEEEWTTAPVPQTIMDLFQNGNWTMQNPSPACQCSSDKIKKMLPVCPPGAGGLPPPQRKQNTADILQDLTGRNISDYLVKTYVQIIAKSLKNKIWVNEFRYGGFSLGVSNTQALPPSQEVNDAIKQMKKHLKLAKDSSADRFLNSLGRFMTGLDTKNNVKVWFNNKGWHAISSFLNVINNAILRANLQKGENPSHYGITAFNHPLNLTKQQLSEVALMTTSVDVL

SMILES	MST binding to ECD2
CC(C)(C)C(=O)COC(=O)c1ccccc1SCc1cc(-c2ccco2)on1 [Hit #4]	do not bind at all
Cc1nn(CC(=O)c2ccc(Br)s2)c(C)c1[N+](=O)[O-] [Hit #3]	do not bind at all
